Values quoted from earlier work as cited in paper PMC2760809 (Nucleic Acids Research, 2009).

Target: many RNA molecules, including HIV TAR RNA and group I introns
Details: read-out: Kd of arginine for RNA molecules

## N=C(N)NCCC[C@H](N)C(=O)O [Arginine]
  Kd: > 2 mM
